Measurements reported in PubChem BioAssay AID2060900 (Molecular Pharmacology Branch, DTP, NCI, 2025).
pIC50: −log10 of the molar value.

System: 521955-158-R2-J5-PDC complex spheroids, viability
Assay: Anticancer human tumor 521955-158-R2-J5-PDC patient-derived pancreatic carcinoma cell line growth inhibition [RAS]
Details: for pIC50: curve of first compound; for viability, T/C: stronger effect = lower value
Description: RAS pathway inhibitors in Combinations in Complex Spheroids
A high-throughput screen of multi-cell type tumor spheroids was designed to identify active combinations of RAS pathway inhibitors and targeted small molecules. Complex spheroids include a stromal component modeled by human endothelial cells (HUVEC) and fibroblasts modeled by human mesenchymal stem cells (MSCs). The concentration ranges selected for each drug and investigational agent were based upon clinically achievable concentrations if the clinical Cmax of the agent was known.
Compounds. The drugs and investigational agents: abemaciclib (NSC768073), cobimetinib (NSC768068), divarasib (GDC6063, NSC841802), docetaxel (NSC628503), GDC-1971 (RLY-1971, NSC841576), gemcitabine (NSC613327), inavolisib (NSC800729), ipatasertib (NSC767898), KB-0742 (NSC834161), MRTX-1133 (NSC836407), osimertinib (NSC779217), RMC-4630 (NSC839698), RMC-6236 (NSC851965), RMC-6291 (NSC852671), Ro-3306 (NSC812927), sapanisertib (NSC764658), SN-38 (NSC673596), staurosporine (NSC755774), SY5609 (NSC837396), and tovorafenib (DAY101, NSC766906), were obtained from the National Cancer Institute (NCI) Developmental Therapeutics Program Chemical Repository. The FDA-approved anticancer drug set is available from the NCI Developmental Therapeutics Program. […] The stock solutions were prepared in dimethyl sulfoxide (DMSO, Sigma-Aldrich, St. Louis, MO, cat. D2650) at 800-fold the tested concentration and stored at -70 degrees C prior to their use. All drugs and investigational agents were tested over a range starting from a high concentration at or near the clinical Cmax and decreasing in half-log increments. If the clinical Cmax for an agent had not been determined, the highest concentration tested was 10 microM.
Cell Culture. All cells were maintained in an incubator at 37 degrees C and 5% CO2 with 95% humidity. The PDC lines were cultured according to standard operating procedures established by the NCI PDMR. All PDCs were thawed and cultured in Matrigel-coated flasks prepared with a working solution of 1X Ham's F-12 nutrient mix, without supplementation (Invitrogen, Waltham, MA, cat. 11765054), 100 U/mL penicillin-streptomycin (Invitrogen, cat. 15140122), and 2.5% Matrigel (Corning Inc., Corning, NY, cat. 354248) for the first three passages. The 362531-283-R-J2-PDC and 782815-120-R-J1-PDC lines were cultured in 6C/Colon 1B media, which includes advanced DMEM/F-12 (Thermo Fisher Scientific, cat. 12634028), 10 mM HEPES (Thermo Fisher Scientific, cat. 15630080), 1X GlutaMAX supplement (Thermo Fisher Scientific, cat. 35050061), 0.1 mg/mL primocin (InvivoGen, San Diego, CA, cat. ant-pm-2), 10% defined fetal bovine serum, heat inactivated (HyClone Laboratories Inc., Logan, UT, cat. SH30070.03HI), 50% L-WRN conditioned media (ATCC, cat. CRL-3276), 1.25 mM N-Acetyl-L-cysteine (Sigma-Aldrich, cat. A9165), 10 mM nicotinamide (Sigma-Aldrich, cat. N0636), 1X B-27 supplement (Thermo Fisher Scientific, cat. 17504044), 1X N-2 supplement (Thermo Fisher Scientific, cat. 17502048), 50 ng/mL human EGF (Thermo Fisher Scientific, cat. PHG0311), and 10 microM Y-27632 dihydrochloride (Tocris Bioscience, cat. 1254). The K12877-001-R-J1-PDC line was cultured in 6I media, which includes all 6C/Colon 1B media plus 10 ng/mL human FGF-10 (PeproTech, cat. 100-26), 1 ng/mL human FGF-2 (PeproTech, cat. 100-18B), 1 µM prostaglandin E2 (Tocris Bioscience, cat. 2296), […] hydrocortisone (Sigma-Aldrich, cat. H4001), and […] bovine insulin (Sigma-Aldrich, cat. I6634). The K86415-001-R-J1-PDC line was cultured in 6D media, which includes all 6C/Colon 1B media components minus the L-WRN conditioned media. The 485176-168-R4-J1-PDC was cultured in PANC media, which includes all 6C/Colon 1B media plus 100 ng/mL human FGF-10 (PeproTech, cat. 100-26), 500 nM SB-431542 (Selleckchem, cat. S1067), and 10 nM gastrin (Tocris Bioscience, cat. 3006). […]
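Also: compound exposure lasted seven days before the viability read.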
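For viability, T/C in this document: spheroids also contain HUVEC endothelial cells and mesenchymal stem cells as stroma.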

Work on `C=CC(=O)Nc1cc(Nc2nccc(-c3cn(C)c4ccccc34)n2)c(OC)cc1N(C)CCN(C)C` + C#Cc1c(F)ccc2cc(O)cc(-c3ncc4c(N5CC6CCC(C5)N6)nc(OCC56CCCN5CC(F)C6)nc4c3F)c12 yielded a pIC50 (second compound 0.0316 µM) of 7.41, a pIC50 (second compound 0.1 µM) of 6.66 and a pIC50 (second compound 0.316 µM) of 7.33. For the same compound, the pIC50 (second compound 1 µM) was over 8.50, the pIC50 (second compound 3.16 µM) was over 8.50 and the pIC50 (second compound 10 µM) was over 8.50. It also gave a viability, T/C (second compound 0.0316 µM, first compound 0.00316 µM) of 65.3%, a viability, T/C (second compound 0.0316 µM, first compound 0.01 µM) of 56% and a viability, T/C (second compound 0.0316 µM, first compound 0.0316 µM) of 52.8%. It also gave a viability, T/C (second compound 0.0316 µM, first compound 0.1 µM) of 43.5%, a viability, T/C (second compound 0.0316 µM, first compound 0.316 µM) of 38.3% and a viability, T/C (second compound 0.0316 µM, first compound 1 µM) of 29.6%. The viability, T/C (second compound 0.1 µM, first compound 0.00316 µM) was 46%, the viability, T/C (second compound 0.1 µM, first compound 0.01 µM) was 59.9% and the viability, T/C (second compound 0.1 µM, first compound 0.0316 µM) was 49.7%. For the same compound, the viability, T/C (second compound 0.1 µM, first compound 0.1 µM) was 59.8%, the viability, T/C (second compound 0.1 µM, first compound 0.316 µM) was 46.7% and the viability, T/C (second compound 0.1 µM, first compound 1 µM) was 22.9%. It also gave a viability, T/C (second compound 0.316 µM, first compound 0.00316 µM) of 51%, a viability, T/C (second compound 0.316 µM, first compound 0.01 µM) of 58.8% and a viability, T/C (second compound 0.316 µM, first compound 0.0316 µM) of 47.1%. It also gave a viability, T/C (second compound 0.316 µM, first compound 0.1 µM) of 48.6%, a viability, T/C (second compound 0.316 µM, first compound 0.316 µM) of 34.5% and a viability, T/C (second compound 0.316 µM, first compound 1 µM) of 22.6%. The viability, T/C (second compound 1 µM, first compound 0.00316 µM) was 46.8%, the viability, T/C (second compound 1 µM, first compound 0.01 µM) was 48.3% and the viability, T/C (second compound 1 µM, first compound 0.0316 µM) was 51.1%. It also gave a viability, T/C (second compound 1 µM, first compound 0.1 µM) of 43.4%, a viability, T/C (second compound 1 µM, first compound 0.316 µM) of 34.4% and a viability, T/C (second compound 1 µM, first compound 1 µM) of 17.8%. The viability, T/C (second compound 3.16 µM, first compound 0.00316 µM) was 43%, the viability, T/C (second compound 3.16 µM, first compound 0.01 µM) was 53.4% and the viability, T/C (second compound 3.16 µM, first compound 0.0316 µM) was 42.5%. The viability, T/C (second compound 3.16 µM, first compound 0.1 µM) was 49.9%, the viability, T/C (second compound 3.16 µM, first compound 0.316 µM) was 27.8% and the viability, T/C (second compound 3.16 µM, first compound 1 µM) was 15%. For the same compound, the viability, T/C (second compound 10 µM, first compound 0.00316 µM) was 32.5%, the viability, T/C (second compound 10 µM, first compound 0.01 µM) was 43.9% and the viability, T/C (second compound 10 µM, first compound 0.0316 µM) was 32.2%. For the same compound, the viability, T/C (second compound 10 µM, first compound 0.1 µM) was 34.2%, the viability, T/C (second compound 10 µM, first compound 0.316 µM) was 26.1% and the viability, T/C (second compound 10 µM, first compound 1 µM) was 3.73%.
